Assay results taken from PubChem BioAssay (NCI).
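Protocol summary: plate cells (96-well), add compound at 5 concentrations, incubate 48 h, interpolate endpoints linearly. Abbreviation: GI50, concentration required for 50% inhibition of growth. TGI is the concentration that stops growth completely.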

Tests used:
Experiment in all cases: NCI anticancer screen, dose series, 48 h
[1] = tested on: SN12C renal
[2] = tested on: SNB-19 CNS
[3] = tested on: CCRF-CEM leukemia
[4] = tested on: UACC-257 melanoma
[5] = tested on: HL-60(TB) leukemia
[6] = tested on: SF-268 CNS
[7] = tested on: OVCAR-4 ovarian
[8] = tested on: KM12 colon
[9] = tested on: IGROV1 ovarian
[10] = tested on: UACC-62 melanoma

SMILES	TGI [1] [µM]	TGI [2] [µM]	TGI [3] [µM]	TGI [4] [µM]	TGI [5] [µM]	TGI [6] [µM]	TGI [7] [µM]	TGI [8] [µM]	TGI [9] [µM]	TGI [10] [µM]	GI50 [1] [µM]	GI50 [2] [µM]	GI50 [3] [µM]	GI50 [4] [µM]	GI50 [5] [µM]	GI50 [6] [µM]	GI50 [7] [µM]	GI50 [8] [µM]	GI50 [9] [µM]	GI50 [10] [µM]
CC(=O)NC1=C(C)C(=O)c2c(nc3n2CCC3O)C1=O (stereo not drawn)	> 100	> 100	39.3	> 59.9	44.2	> 83.3	29.7	> 100	> 89.7	38.2	–	–	–	–	–	–	–	–	–	–
O=C1c2ccccc2-c2c1c1ccc([N+](=O)[O-])cc1c(=O)n2CCNCCCNCCn1c2c(c3ccc([N+](=O)[O-])cc3c1=O)C(=O)c1ccccc1-2	4.04	4.94	3.97	25.1	50	12.5	4.92	11.3	4.38	2.03	0.144	0.126	0.00645	8.89	1.5	0.0881	0.215	0.172	0.0249	0.372
Cn1cc(NC(=O)c2cc(NC(=O)Nc3cc(C(=O)Nc4cc(C(=O)NCCC(=N)N)n(C)c4)n(C)c3)cn2C)cc1C(=O)NCCC(=N)N	> 100	> 100	77	45.5	> 100	> 100	> 100	36.8	68.7	53.2	–	–	–	–	–	–	–	–	–	–
O=S1(=O)N(Cc2ccccc2)[C@@H](Cc2ccccc2)C2O[C@H]2[C@H](Cc2ccccc2)N1Cc1ccccc1 (stereo partly drawn)	> 7.5	> 7.5	> 7.5	> 7.5	> 7.5	> 7.5	> 7.5	> 7.5	> 7.5	> 7.5	> 7.5	> 7.5	> 7.5	2.89	4.75	6.08	> 7.5	7.19	5.06	6.75
CNS(=O)(=O)NN(C)S(=O)(=O)c1ccc(Cl)cc1	> 100	> 100	> 100	> 100	> 100	> 100	> 100	> 100	> 100	> 100	–	–	–	–	–	–	–	–	–	–
CN(C)C(=S)NN=C(c1ccccn1)c1ccccn1	33.4	> 100	> 65.2	2.51	–	> 43.4	> 83.1	21.6	21.8	0.739	0.0971	3.13	–	< 0.012	< 0.0479	< 0.0362	< 0.01	0.046	< 0.01	0.077
CNc1nc(C)c(-c2nc(Nc3cccc(S(N)(=O)=O)c3)ncc2F)s1	2.69	14.1	> 40.9	0.232	0.108	1.44	12.5	4.43	12.3	0.0741	0.0313	0.0273	0.0358	0.0657	0.0309	0.0287	0.0524	0.0368	0.0349	0.0224
NC1CCCCC1N.O=C([O-])P(=O)([O-])[O-].[Na+].[Pt+4] (stereo not drawn)	> 100	> 100	> 100	> 100	> 100	> 100	> 100	> 100	> 100	> 100	> 100	> 100	> 100	> 100	75.9	> 100	> 100	> 100	> 100	> 100
CCc1ccc(-c2ccc(=O)n(-c3ccc(S(N)(=O)=O)cc3)n2)cc1	> 100	40.1	> 100	> 100	4.18	> 69.3	> 100	> 100	> 77.6	> 100	9.88	5.21	1.22	> 30.9	0.365	9.06	> 100	0.68	3.32	0.84
C[C@@H]1COCCN1c1nc(-c2cnc(N)cc2C(F)F)nc(N2[C@H](C)COC[C@@H]2C)n1	15.9	14.4	21.2	8.05	19.5	16.1	11.9	13.8	1.77	2.74	0.302	0.405	0.431	0.323	0.863	0.356	0.278	0.423	0.0845	0.116
OCc1cccc(-c2ccc3ncc(-c4nc(NC5CC5)ncc4F)n3c2)c1	1.57	4.18	2.69	1.79	0.708	0.801	1.77	1.21	1.32	0.698	0.281	0.323	0.249	0.372	0.243	0.275	0.342	0.222	0.227	0.248
O=C(Nc1c(Cl)cc([N+](=O)[O-])cc1Cl)C(=O)C1C(=O)NC(=S)NC1=O	> 100	> 100	> 100	> 100	> 100	> 100	> 100	> 100	> 100	> 100	–	–	–	–	–	–	–	–	–	–
